Experimental findings from patent US12630536B2, “Cyanotriazine derivative, preparation method therefor, and application thereof” (Chengdu Fanxi Biopharma Co., LTD., priority 2020, dated 2026) are described below.

The structures appear in SMILES notation. Read-outs that look alike come from different tables or passages of the source.

Assay [1] deals with TR beta-UAS-bla HEK 293T Cells. Nature of the assay: TR cell-based agonist detection, β-lactamase reporter (LiveBLAzer FRET B/G), TR beta. Particulars: for EC50: read-out: TR_β_EC50; for Emax: read-out: Maximum activity ratio (A460/A530). As for the experimental part:
(§1) A method for testing a THR-α/β activation activity of a compound by an in-vitro cell level was as follows.
(§2) Compounds were transferred to a 384-well plate by an ECHO liquid workstation, and each compound was diluted by 3 times with 10 gradient concentrations, which was in triplicate. 1.5×10^4 DMEM-cultured cells (TR beta-UAS-bla HEK 293T Cells) or 1.0×10^4 TR alpha-UAS-bla HEK 293T Cells were placed in the 384-well plate. HEK 293T-TR beta was incubated in an incubator for 16 hours, and HEK 293T-TR alpha was incubated in an incubator for 24 hours. A LiveBLAzer™-FRET B/G (CCF4-AM) substrate was added into the cell plate to detect expression of β-lactamase in cells, and under excitation of 409 nm, a product produced fluorescence with a wavelength of 447 nm. When the β-lactamase was not expressed, under excitation of 409 nm, fluorescence with a wavelength of 520 nm was directly produced through FRET. Combination between the compound and the protein was determined by detecting a ratio of the two kinds of fluorescence (blue/green, 460 nm/530 nm), thus calculating EC50 of the compound. […] Calculation of a factor Z (greater than 0.5) would be used for monitoring a stability of each experiment.

For assay [2], the target named is T1, THR-β ligand-binding domain (H6-THR-β) (Homo sapiens, UniProt P10828).
T1 construct: made in house; host or cells: Escherichia coli BL21 (DE3), vector pET28a
T1 sequence (P10828 217-461 limits assumed): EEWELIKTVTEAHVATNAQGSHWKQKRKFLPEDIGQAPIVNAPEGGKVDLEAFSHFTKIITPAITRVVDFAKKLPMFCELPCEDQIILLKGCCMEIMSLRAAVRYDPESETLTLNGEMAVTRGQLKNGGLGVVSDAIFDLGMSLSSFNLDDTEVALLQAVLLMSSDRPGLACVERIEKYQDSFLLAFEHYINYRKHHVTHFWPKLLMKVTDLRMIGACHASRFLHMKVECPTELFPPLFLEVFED
T1 sequence (P19793 225-462 partner limits assumed): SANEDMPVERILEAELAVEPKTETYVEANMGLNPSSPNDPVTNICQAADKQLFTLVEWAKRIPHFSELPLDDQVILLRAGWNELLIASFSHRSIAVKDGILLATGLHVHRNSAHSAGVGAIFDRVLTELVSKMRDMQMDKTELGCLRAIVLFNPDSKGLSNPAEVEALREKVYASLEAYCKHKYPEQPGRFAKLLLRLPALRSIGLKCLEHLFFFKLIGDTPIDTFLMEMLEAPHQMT
T1 sequence (Q15596 679-703 partner limits assumed): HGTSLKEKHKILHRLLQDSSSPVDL
Nature of the assay: Co-activated peptide recruitment test of THR-β/RXR/GRIP1 (TR_LBD agonist detection, HTRF). Conditions: for EC50: Detection of TR_LBD agonist, read-out: TR_beta_EC50; for Maximum activity ratio (A520/A495) / Measurement of cpd/T3 (maximum ratio) / α/β: TR_LBD agonist; for Maximum activity ratio (A520/A495) / Measurement of cpd/T3 (maximum ratio): TR_β; for Measurement of cpd/T3 (maximum ratio): maximum relative to T3; for α/β: ratio TR_α EC50 / TR_β EC50. It is filed as biochemical. The procedure: (§3) A ligand binding domain of THR-β (amino acids 148-410) (H6-THR-β) and a ligand binding domain of THR-α (amino acids 202-461) (H6-TRα) were cloned into E. coli expression vector pET28a (Novagen, Milwaukee, Wis.) containing N-terminal six His sequences. The resulting recombinant six-His-tagged protein was produced in E. coli BL21(DE3) cells. The cells were grown in Terrific Broth (self-used self-prepared Bacto tryptone (3.3%, w/v), Difico yeast extract (2.0%, w/v) and NaCl (0.5%, w/v) medium), incubated at 25° C. for 24 hours using a shake flask in 0.2 mM IPTG, harvested or dissolved with 5 volumes of buffer A (0.05 M Tris, 0.3 M NaCl, 1% W/V betaine, 0.01 M imidazole, 0.02 M b-mercaptoethanol, pH 8.0). Lysozyme (1.0 mg/ml, Sigma) and CompleteProtease Inhibitor Cocktail (Roche Diagnostics Gmbh) were added to the slurry and the solution was sonicated for one minute and 5 times at 4° C. The suspension was centrifuged at 127,300 RCF for 2 hours in a Ti45 Beckmann rotor and the supernatant was loaded onto an NI NTAAgarose (Quigen 30210) column. After washing with the buffer A, […] or H6-THR-α was eluted with the buffer A containing 0.25 M imidazole.
(§4) 30 microliters of H6-THR-β (50 nM) or H6-THR-α in 50 mM Hepes, pH 7.0, 1 mM DTT, 0.05% NP40 and 0.2 mg/ml BSA (binding buffer) were mixed with an equal volume of EE-RxRα (50 nM) in the binding buffer. […] Aliquot ([…]) was transferred to a 384-well black microtiter plate. HTRF signal was read on a Victor5 reader (PerkinElmer Life and Analytical Sciences). EC50 was calculated.
(§5) Gene clones expressing a ligand-binding domain (amino acids 148-410) of THR-β (H6-THR-β) and a ligand-binding domain (amino acids 202-461) of THR-α (H6-THR-α) were inserted into an Escherichia coli expression vector pET28a, and the expression vector contained one N-terminal 6-His sequence. The expression vector was introduced into an Escherichia coli BL21 (DE3) strain to produce a recombinant protein with a His tag. […] After finishing culturing, a bacterium in culture was collected, and the collected bacterium was resuspended with a lysis solution (0.05 M Tris, 0.3 M NaCl, 1% W/V betaine, 0.01 M imidazole, 0.02 M β-mercaptoethanol, and pH 8.0) with a volume 5 times that of the bacterium, and lysozyme and protease inhibitors were added at the same time, the treated bacteria was subjected to ultrasonic lysis (5 times per minute) in ice bath (4° C.). A lysed suspension was centrifuged at 127300 RCF for 2 hours, a supernatant was loaded on a NI_NTA agarose (Quigen 30210) column, and after washing with a buffer A, an H6-TRβ or H6-TRα protein was eluted with the buffer A containing 0.25 M imidazole.
(§6) A human retinol X receptor (amino acid 225-462) (RxRα) was subjected to engineering modification, so that an N-terminal of the human retinol X receptor had His6 and EE(EFMPME) tags, and then the human retinol X receptor was cloned into a pACYC vector, and produced a His6 EEtagged protein in Escherichia coli. IPTG with a final concentration of 0.1 mM was added into the culture medium for induction, and cultured in a shaking flask at 18° C. for 18 hours. After finishing culturing, a bacterium in culture was collected, and the collected bacterium was re-suspended with a lysis solution (0.05 M Tris, 0.3 M NaCl, 1% W/V betaine, 0.01 M imidazole, 0.02 β-mercaptoethanol, and pH 8.0) with a volume 5 times that of the bacterium, lysozyme and protease inhibitors were added at the same time, and stirred at 4° C. for 30 minutes. Then, a suspension was subjected to an ultrasonic treatment at 4° C. for 30 seconds for 5 times. The suspension was collected, and centrifuged at 12000 RCF for 20 minutes. A supernatant was collected, and the supernatant was filtered with a membrane with a pore size of 0.45 μm, and then added with 0.5% NP-40.
On the technique in general: Time-resolved FRET reads energy transfer from a long-lived donor to a nearby acceptor.

Assay [3] relates to TR alpha-UAS-bla HEK 293T Cells. Nature of the assay: TR cell-based agonist detection, β-lactamase reporter (LiveBLAzer FRET B/G), TR alpha. Conditions: for EC50: Detection of TR_cell-based agonist, HEK 293T-TR alpha, 24 hours, read-out: TR_α_EC50; for Emax: HEK-293T, 24 h, read-out: Maximum activity ratio. As for the experimental part:
as §1, §2

In assay [4] the target is T2, THR-α ligand-binding domain (H6-THR-α) (Homo sapiens, UniProt P10827).
T2 construct: made in house; host or cells: Escherichia coli BL21 (DE3), vector pET28a
T2 sequence (P10827 148-410 isoform P10827-2 limits assumed): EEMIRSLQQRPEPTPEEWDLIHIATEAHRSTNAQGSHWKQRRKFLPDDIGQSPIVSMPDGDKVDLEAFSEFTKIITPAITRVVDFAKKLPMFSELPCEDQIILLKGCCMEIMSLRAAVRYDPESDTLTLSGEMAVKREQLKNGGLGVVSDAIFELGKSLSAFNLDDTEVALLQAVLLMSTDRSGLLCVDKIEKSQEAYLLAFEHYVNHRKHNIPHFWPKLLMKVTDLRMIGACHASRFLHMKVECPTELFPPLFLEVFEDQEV
T2 sequence (P19793 225-462 partner limits assumed): T1 sequence (P19793 225-462 partner limits assumed)
T2 sequence (Q15596 679-703 partner limits assumed): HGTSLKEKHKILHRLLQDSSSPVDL
Nature of the assay: Co-activated peptide recruitment test of THR-α/RXR/GRIP1 (TR_LBD agonist detection, HTRF). It counts as biochemical. Conditions: for EC50: Detection of TR_LBD agonist, read-out: TR_α_EC50; for Maximum activity ratio (A520/A495) / Measurement of cpd/T3 (maximum ratio): TR_LBD agonist, TR_α; for Measurement of cpd/T3 (maximum ratio): maximum relative to T3. As for the experimental part: as §3, §4, §5, §6

Where [5] appears, read: Homo sapiens, HEK-293T, 16 h, TR_cell-based agonist, TR_β.
The mark [6] stands for this setting: Homo sapiens, Detection of TR_cell-based agonist, HEK 293T-TR beta, 16 hours.
Where [7] appears, read: Homo sapiens, TR_cell-based agonist, TR_α.

As for `N#Cc1nn(-c2cc(Cl)c(Oc3ccc4ncn(CCN5CCCC5)c4c3)c(Cl)c2)c(=O)[nH]c1=O` [Compound 5], in assay [1] (Detection of TR_cell-based agonist, HEK 293T-TR beta, 16 hours), the EC50 is more than 20000 nM. For the same molecule, in assay [1] (TR_cell-based agonist, TR_β), the “Maximum activity ratio (A460/A530)” value stood at 0.134. In assay [2], the EC50 was 45.5 nM, the “Maximum activity ratio (A520/A495)” value is 2.69, the “Measurement of cpd/T3 (maximum ratio)” value is 49.1% and the α/β amounted to 28.81. Moreover, the EC50 in assay [3] was more than 20000 nM. Further, the Maximum activity ratio in assay [3] (TR_cell-based agonist, TR_α) stood at 0.42. Also, in assay [4], the EC50 came to 1310 nM, the “Maximum activity ratio (A520/A495)” value worked out at 2.45 and the “Measurement of cpd/T3 (maximum ratio)” value was 45.5%.

Regarding `N[C@@H](Cc1cc(I)c(Oc2ccc(O)c(I)c2)c(I)c1)C(=O)O` [Compound T3, 3,5,3′-tri-iodine-L-thyronine, reference compound], the EC50 in assay [1] (Homo sapiens, HEK-293T, 16 h) amounted to 0.325 nM; in assay [3] (Homo sapiens), 0.055 nM.

`N#Cc1nn(-c2cc(Cl)c(Oc3ccc4ncn(C5CCCC5)c4c3)c(Cl)c2)c(=O)[nH]c1=O` [Compound 8, 2-(3,5-dichloro-4-((1-cyclopen-tyl-1H-benzo[d]imidazol-6-yl)oxy)phenyl)-3,5-dioxo-2,3,4,5-tetrahydro-1,2,4-triazine-6-carbonitrile]: the values for the Emax in assay [1] (setting [5]) and in assay [3] (setting [7]) were 33.9% and 72%, respectively. For the same molecule, the EC50 came out at 596 nM in assay [1] (setting [6]), 5.48 nM in assay [2], 2200 nM in assay [3] (Homo sapiens) and 55 nM in assay [4]. The “Measurement of cpd/T3 (maximum ratio)” value in assay [1] (TR_cell-based agonist, TR_β, maximum relative to T3) is reported as 6.2%; in assay [2], 54.0%; in assay [4], 43.0%. For the same molecule, the α/β in assay [1] (TR_cell-based agonist, ratio TR_α EC50 / TR_β EC50) is 3.69; in assay [2], 10.04. For the same molecule, the “Maximum activity ratio (A520/A495)” value is given as 2.96 in assay [2] and 2.32 in assay [4]. In assay [3] (TR_cell-based agonist, TR_α, maximum relative to T3), the “Test cpd/T3 (maximum ratio)” value came out at 32.7%.

For the molecule `Cn1cnc2cc(Oc3c(Cl)cc(-n4nc(C#N)c(=O)[nH]c4=O)cc3Cl)ccc21` [Compound 2, 2-(3,5-dichloro-4-((1-methyl-1H-benzo[d]imidazol-5-yl)oxy)phenyl)-3,5-dioxo-2,3,4,5-tetrahydro-1,2,4-triazine-6-carbonitrile], the values for the Emax in assay [1] (setting [5]) and in assay [3] (setting [7]) were 14.5% and 35%, respectively. Also, the EC50 in assay [1] (setting [6]) was more than 20000 nM; in assay [2] it was 154 nM; in assay [3] (Homo sapiens), more than 20000 nM; in assay [4], more than 5000 nM. The “Measurement of cpd/T3 (maximum ratio)” value in assay [2] stood at 22.1%.

As to `Cn1cnc2cc(Oc3c(Br)cc(-n4nc(C#N)c(=O)[nH]c4=O)cc3Br)ccc21` [Compound 4, 2-(3,5-dibromo-4-((1-methyl-1H-benzo[d]imidazol-5-yl)oxy)phenyl)-3,5-dioxo-2,3,4,5-tetrahydro-1,2,4-triazine-6-carbonitrile], the Emax in assay [1] (setting [5]) worked out at 16.6%; in assay [3] (setting [7]), 40%. Also, the EC50 was more than 20000 nM in assay [1] (setting [6]), 51.7 nM in assay [2], more than 20000 nM in assay [3] (Homo sapiens) and 581 nM in assay [4]. The “Maximum activity ratio (A520/A495)” value is given as 1.46 in assay [2] and 1.59 in assay [4]. In addition, the “Measurement of cpd/T3 (maximum ratio)” value in assay [2] was found to be 26.6%; in assay [4] it was 29.5%. Further, in assay [2], the α/β is 11.25.

On to `N#Cc1nn(-c2cc(Cl)c(Oc3ccc4ncn(C5CCN(Cc6ccccc6)C5)c4c3)c(Cl)c2)c(=O)[nH]c1=O` (centres unmarked) [Compound 7, 2-(4-((1-(1-benzylpyrrolidin-3-yl)-1H-benzo[d]imidazol-6-yl)oxy)-3,5-dichlorophenyl)-3,5-dioxo-2,3,4,5-tetrahydro-1,2,4-triazine-6-carbonitrile], for which the Emax in assay [1] (setting [5]) worked out at 11.6%; in assay [3] (setting [7]), 19%. Besides, the EC50 in assay [1] (setting [6]) is more than 20000 nM; in assay [2], 13.4 nM; in assay [3] (Homo sapiens), more than 20000 nM; in assay [4] it was more than 5000 nM. Also, the “Measurement of cpd/T3 (maximum ratio)” value in assay [2] was 22.6%.

Consider `N#Cc1nn(-c2cc(Cl)c(Oc3ccc4ncn(C5CCNC5)c4c3)c(Cl)c2)c(=O)[nH]c1=O` (centres unmarked) [Compound 6], for which the EC50 in assay [2] is more than 5000 nM.
